Results from the NIST ThermoML archive (doi:10.1021/je800998u).
± gives the expanded uncertainty stated by the source.

How the values were obtained:
[1] = for molar entropy / mass density: 101.33 kPa; for molar entropy: Small (less than 1 g) adiabatic calorimetry; for mass density: Pycnometric method; for vapor or sublimation pressure: Ebulliometric method (Recirculating still); for Triple point temperature: Adiabatic calorimetry
[2] = Molar enthalpy of transition or fusion; conditions: Adiabatic calorimetry

CC(C)COCC(C)C [diisobutyl ether]
[1]
Conditions | mass density [kg/m3] | molar entropy [J/K/mol] | vapor or sublimation pressure [kPa]
10 K, Crystal 2 | – | 0.4387 ± 0.041 | –
15 K, Crystal 2 | – | 2.36 ± 0.08 | –
20 K, Crystal 2 | – | 5.506 ± 0.13 | –
25 K, Crystal 2 | – | 9.633 ± 0.17 | –
30 K, Crystal 2 | – | 14.45 ± 0.26 | –
35 K, Crystal 2 | – | 19.69 ± 0.3 | –
40 K, Crystal 2 | – | 25.17 ± 0.34 | –
45 K, Crystal 2 | – | 30.79 ± 0.38 | –
50 K, Crystal 2 | – | 36.49 ± 0.42 | –
55 K, Crystal 2 | – | 42.24 ± 0.47 | –
60 K, Crystal 2 | – | 48.03 ± 0.51 | –
65 K, Crystal 2 | – | 53.84 ± 0.55 | –
70 K, Crystal 2 | – | 59.61 ± 0.6 | –
75 K, Crystal 2 | – | 65.3 ± 0.64 | –
80 K, Crystal 2 | – | 70.92 ± 0.68 | –
85 K, Crystal 2 | – | 76.51 ± 0.72 | –
90 K, Crystal 2 | – | 82.09 ± 0.79 | –
95 K, Crystal 2 | – | 87.65 ± 0.83 | –
100 K, Crystal 2 | – | 93.17 ± 0.86 | –
110 K, Crystal 2 | – | 104 ± 0.9 | –
120 K, Crystal 2 | – | 114.8 ± 1 | –
130 K, Crystal 2 | – | 125.4 ± 1.1 | –
140 K, Crystal 2 | – | 135.9 ± 1.1 | –
150 K, Crystal 2 | – | 146.4 ± 1.2 | –
160 K, Crystal 2 | – | 157.1 ± 1.2 | –
170.71 K, Crystal 1 | – | 179.1 ± 1.4 | –
170.71 K, Crystal 2 | – | 168.6 ± 1.3 | –
180 K, Crystal 1 | – | 188.8 ± 1.4 | –
190.4 K, Crystal 1 | – | 200.4 ± 1.5 | –
190.4 K, Liquid | – | 259.9 ± 1.9 | –
200 K, Liquid | – | 272.1 ± 1.9 | –
210 K, Liquid | – | 284 ± 2 | –
220 K, Liquid | – | 295.5 ± 2.1 | –
230 K, Liquid | – | 306.6 ± 2.1 | –
240 K, Liquid | – | 317.3 ± 2.2 | –
250 K, Liquid | – | 327.8 ± 2.3 | –
260 K, Liquid | – | 338 ± 2.3 | –
270 K, Liquid | – | 348 ± 2.4 | –
280 K, Liquid | – | 357.7 ± 2.4 | –
290 K, Liquid | – | 367.2 ± 2.5 | –
298.06 K, Liquid | 748.62 ± 0.79 | – | –
298.07 K, Liquid | 748.49 ± 0.82 | – | –
298.09 K, Liquid | 748.45 ± 0.82 | – | –
298.14 K, Liquid | 748.69 ± 0.82 | – | –
298.15 K, Liquid | – | 374.8 ± 2.5 | –
298.18 K, Liquid | 748.69 ± 0.82 | – | –
298.22 K, Liquid | 748.09 ± 1 | – | –
300 K, Liquid | – | 376.5 ± 2.6 | –
302.68 K, Liquid | 743.72 ± 0.79 | – | –
302.73 K, Liquid | 744.19 ± 1.1 | – | –
302.79 K, Liquid | 743.67 ± 0.91 | – | –
302.81 K, Liquid | 744.14 ± 0.79 | – | –
302.83 K, Liquid | 743.5 ± 0.98 | – | –
302.86 K, Liquid | 743.47 ± 0.82 | – | –
310 K, Liquid | – | 385.6 ± 2.6 | –
312.72 K, Liquid | 733.67 ± 0.78 | – | –
312.95 K, Liquid | 733.53 ± 0.78 | – | –
312.99 K, Liquid | 733.64 ± 0.78 | – | –
313.02 K, Liquid | 733.56 ± 0.78 | – | –
313.03 K, Liquid | 734 ± 0.93 | – | –
320 K, Liquid | – | 394.6 ± 2.7 | –
330 K, Liquid | – | 403.5 ± 2.7 | –
330.9 K, Liquid | – | – | 10.75 ± 0.026
336.08 K, Liquid | – | – | 13.37 ± 0.03
340 K, Liquid | – | 412.1 ± 2.8 | –
341.66 K, Liquid | – | – | 16.76 ± 0.037
347.21 K, Liquid | – | – | 20.79 ± 0.045
350 K, Liquid | – | 420.8 ± 2.8 | –
352.09 K, Liquid | – | – | 24.97 ± 0.053
357.89 K, Liquid | – | – | 30.79 ± 0.064
360 K, Liquid | – | 429.3 ± 2.9 | –
363.27 K, Liquid | – | – | 37.12 ± 0.077
369.46 K, Liquid | – | – | 45.66 ± 0.094
370 K, Liquid | – | 437.7 ± 2.9 | –
375.78 K, Liquid | – | – | 55.91 ± 0.11
381.77 K, Liquid | – | – | 67.26 ± 0.14
388.15 K, Liquid | – | – | 81.3 ± 0.16
392.78 K, Liquid | – | – | 92.88 ± 0.19
393.58 K, Liquid | – | – | 95 ± 0.19
394.37 K, Liquid | – | – | 97.12 ± 0.2
395.14 K, Liquid | – | – | 99.28 ± 0.2

Conditions | Molar enthalpy of transition or fusion, [2] [kcal/mol] | Triple point temperature, [1] [K]
Crystal 1 | 2.71 ± 0.055 | 190.4 ± 0.15
Crystal 2 | 0.43 ± 0.0454 | 170.71 ± 0.4
